Test results: patent US20160011176A1, “METHOD AND DEVICE FOR EXAMINING MYOCARDIAL TOXICITY AND EVALUATING CARDIOMYOCYTES” (NATIONAL UNIVERSITY CORPORATION TOKYO MEDICAL AND DENTAL …, priority 2012, published 2016)

What was measured:
cardiomyocyte network [1] = assay: Excitation conduction transmitting through a linearly arranged cardiomyocyte network (transmission time, its fluctuation, FPD, STVFPD); format: cell-based
Source text: FIGS. 65a, b schematically show an example of a method of such measurement of excitation conduction transmitting through a cardiomyocyte network. […] Arranged on a bottom surface of each cell housing on a substrate surface are respective electrodes (about 8 μm in diameter) for measurements of cellular potential, and from each of the electrodes, respective lead lines are extended. A single cardiomyocyte is received in each of the cell housings.
Specifically, in order to measure the temporal variation in the excitation conduction transmitting through the cellular population, an ignition peak of depolarization excited by an initial excitation conduction of each cell or each local point is measured, and at the same time, an ignition peak of an initial depolarization based on excitation conduction in another local area of adjacent another cell or adjacent another cellular population is measured; then a variation of a transmission rate or a transmission elapsed time is measured with respect to the distance between the two measurement points; and then the level of fluctuation of the transmission is quantitatively measured. Generally, the initial peak based on the excitation conduction is deemed to be a sodium spike. Thus, in view of this, the measurements of the initial ignition peak based on the excitation conduction are equivalent to the measurements of the sodium spikes. For example, where a drug with a big risk of proarrhlythmia is used, an increase in the fluctuation is utilized for the measurements. Here, the following are required: (1) a network of a plurality of cardiomyocytes is formed; (2) there is a means for accurately measuring the transmission delay time by measuring respective cellular potential wave form at two or more spatially different points within the network, and simultaneously accurately measuring the time of depolarization ignition spikes excited by the initial excitation conduction of the wave form; (3) in the case where a forced pulsation is provided, three or more electrodes are used to measure time required for transmission of the pulsation between respective electrodes at other measurement electrodes using the electrodes at both ends as stimulation electrodes, enabling measurements of temporal fluctuation of transmission rate or transmission time between the electrodes. As for the fluctuation, the STV as shown in Equation 3 in FIG. 24(c), for example, can be used for quantification. Here, Delayn and Delayn+1 (FIG. 65) can substitute for Vn and Vn+1. For transmission, when velocity is used, respective velocities can substitute for Delayn and Delayn+1. […] Thus, the transmission time will be measured as an extremely shorter transmission time than a transmission delay measured normally between adjacent electrodes. […]

cardiomyocyte network [2] = assay: Simultaneous measurement of extracellular potential (FP) and contractile force (optical imaging) in a cardiomyocyte network; format: cell-based
Source text: FIG. 43 is a schematic diagram showing an example of a system configuration of the present invention to simultaneously measure the mechanical properties and electrical properties of cardiomyocytes. The present system includes (1) a cellular network chip that can be used for culturing a cell population, includes a plurality of micro-electrodes disposed on a substrate and can be used for acquiring cellular potential data of a small area of the population; (2) a chip mounter for mounting the chip and joining electrically with cell-stimulating and/or cellular potential measuring system; (3) an environmental control vessel which can be used to control the environment such as temperature, humidity, oxygen concentration and carbon dioxide concentration of the cell population being cultured; (4) a micro multi-electrode potential measurement system that can give stimulation to a specific cell of a cardiomyocyte population, and allows simultaneous continuous measurements of cellular potentials of various small areas in the cell population; (5) one or more position-coordinate probe microparticles configured to measure changes in shape of myocardial cells and allow easy identification of cardiomyocytes using a plastic, polymer, glass or metal microparticles such as polystyrene microparticles, glass microparticles or gold microparticles of sizes from at minimum about 0.1, 0.2 μm, 0.3 μm, 0.4 μm, 0.5 μm, 0.6 μm, 0.7 μm, or preferably about 0.8 μm, more preferably about 0.9 μm, or most preferably about 1 μm to at most about 500 μm, 400 μm, 300 μm, preferably about 200 μm, more preferably about 100 μm or most preferably about 50 μm, wherein the particles are disposed in the cell population by mixing them on the surface of the cardiomyocyte population in the cell network chip or in the cell population and culturing them; (6) an optical image capturing system for optically measuring the microparticles, wherein the system includes a light source, an optical microscope and an image-capturing camera to capture the images of the microparticles; and (7) a computer system for image analysis, cellular potential analysis, stimulus control and/or integrated data acquisition, wherein the system is capable of measurements of cellular potential and analysis of waveforms of the potential, measurements of cell displacements by image analysis and feedback stimulation based on the analysis results. In the measurements using the device system, as for the stimulus to cause depolarization of the myocardial cells, the stimulus can be provided by selecting mainly from three means, i.e., (A) measurements using conduction of autonomous pulsation of the cardiomyocyte population, (B) measurements of conduction by providing a forced electrical stimulation from outside to a specific cell in the cardiomyocyte population and (C) measurements of conduction by providing a feed-back stimulus at a specific timing to meet the relationship of the delay time and the value of the cellular potential based on the cell voltage measured data to the specific cells in the cardiomyocyte population.
FIG. 44 is an example of a data acquisition monitor screen showing an example of data obtained from an example of a system configuration of the present invention to simultaneously measure the mechanical properties and the electrical properties of cardiomyocytes. In a setting of this example, a large number of polystyrene microparticles are placed on the surface of the cardiomyocyte population, a probe-particle displacement-observation window for five of the polystyrene microparticles selected as probes is set, and the center of gravity of the window moves with the movement of the microparticles in the window, thereby displacement of the particular probe microparticles can be measured continuously as a change in vector time in the directions of the X-axis and Y-axis. […]

SMILES | fluctuation of FPD (STVFPD) (cardiomyocyte network [1]; FIG. 66e) | FPD (as indicator of toxicity) (cardiomyocyte network [1]; FIG. 66d) | fluctuation of time required for transmission (cardiomyocyte network [1]; concentration over 1 μM) | transmission rate between adjacent electrodes (relative to no drug) (cardiomyocyte network [1]; concentration over 1 μM) | angle fluctuation against a decrease in contractile force (cardiomyocyte network [2]; 10 nM) | angle fluctuation (contraction direction) (cardiomyocyte network [2]; 100 nM) | contractile forces (time variation) (cardiomyocyte network [2]; 100 nM) | electrical firing of excitatory conduction of cells (cardiomyocyte network [2]; 100 nM) | electrophysiological excitation (cardiomyocyte network [2]; 1000 nM) | mechanical contraction (cardiomyocyte network [2]; 1000 nM)
CC(C)(C)c1ccc(C(O)CCCN2CCC(C(O)(c3ccccc3)c3ccccc3)CC2)cc1 (stereo not shown) [terfenadine] | barely recognizable | is not seen | increases | suddenly decreased | – | – | – | – | – | –
COc1ccc(CCN(C)CCCC(C#N)(c2ccc(OC)c(OC)c2)C(C)C)cc1OC (stereo not shown) [verapamil] | – | – | – | – | barely increases | rapid fluctuation of contractile direction in the angular direction | disappear rapidly | is maintained | does not occur | does not occur
